The text below walks through data of patent US20260256790A1, “DEBIO-0123 IN COMBINATION WITH TEMOZOLOMIDE AND RADIOTHERAPY FOR USE IN TREATING GLIOMA” (Debiopharm International S.A., priority 2023, published 2026).

Series [1] has as its system U87-MG-luc GBM cell line. The series is described as follows: U87-MG-luc tumors implanted subcutaneously in mice, monotherapy. Conditions: for Tumor volume vs vehicle controls at end of treatment: subcutaneous, 28 days. The series is classed as in vivo. How it is done:
Male athymic nude mice were injected A) subcutaneously (s.c.) or B) cerebrally (i.e.) with 1×10^5 U87-MG-luc cells in Matrigel. Animals implanted i.e. were imaged to monitor tumor establishment and growth throughout the study using an In Vivo Imaging System (IVIS) once weekly, detecting tumor bioluminescence (BLI) in photons. For animals implanted s.c., tumor growth was monitored twice weekly by caliper measurement and tumor volume calculated using the equation V=(L×W×W)/2, where V is tumor volume, L is tumor length (the longest tumor dimension) and W is tumor width (the longest tumor dimension perpendicular to L). Upon confirmation of tumor establishment, animals were randomly allocated into 3 (A, s.c.) or 2 (B, i.e.) treatment groups (n=8 animals per group) consisting of vehicle (0.5% methycellulose, 1% Tween 80 P.O. and saline I.V.) or Compound of formula (I) [CoF (I)] formulated as a suspension in 0.5% methycellulose and 1% Tween 80. The treatments were administered over a 28 day cycle and compound of formula (I) was administered orally at a dose of either 30 mg/kg (for both A and B) or 60 mg/kg (for A only), once daily (QD)). During routine monitoring, the animals were checked for any effects of tumor growth and treatments on behavior such as mobility, food and water consumption, body weight gain/loss 3 times a week, eye/hair matting and any other abnormalities. Mortality and observed clinical signs were recorded for individual animals in detail.

Series [2] can be described thus: CSF and matching plasma concentrations in glioma patients (clinical trial Arms A and B). The series is classed as in vivo, human. The procedure: In the clinical trial described in Example 9, cerebrospinal fluid (CSF) stabilized with formic acid 0.5% and matching plasma samples collected on K2 EDTA were drawn from 3 patients of Arm A on day 11 of cycle 1 (i.e. 2 patients at 150 mg and 1 patient at 200 mg of Study drug) and 1 patient of Arm B on Week 3 day 1 (i.e. Day 15 after daily doses of Study drug at 90 mg).
Study drug (parent, active moiety) and its active metabolite N^32-desmethyl-Study drug were measured using LC-MS/MS methods. Results were provided in ng per mL of plasma or CSF, and then converted to nmol/L using the molecular weights of the Study drug (511.45 g/mol) and N^32-desmethyl-Study drug (497.42 g/mol).
(§1) Thus, the unbound (or free fraction) of the Study Drug and the N^32-desmethyl-Study drug are calculated.
In CSF, the total protein concentration varies between 0.2% and 0.5% of the total protein concentration of blood (H. Reiber, Clinica Chimica Acta, 2001; Schilde L M et al., PLoS ONE, 2018), therefore the concentration measured in CSF essentially corresponds to the free fraction of the compounds.
For each of the 4 patients, the ratio CSF/plasma of a given compound (Study drug parent or metabolite) was calculated using the CSF concentration of said compound (in nmol/L) and the unbound or free fraction of said compound in plasma (in nmol/L).

Series [3] relates to SF188 cells. Briefly: ATP-based cell viability assay (CellTiter-Glo 2.0) in control and ATRX-deficient SF188 cells. How it is done: SF188 cells were transfected with ATRX siRNA (siATRX_1 or siATRX_2) either individually (A) or as a pool (B and C) or control siRNA (siCon) and ATRX deficiency assessed by determining relative ATRX protein levels by western blotting. Control and ATRX-deficient SF188 cells were then treated with compound of formula (I) at a range of concentrations between 0 and 1.5 uM (FIG. 7A) and at 400 nM (FIG. 7B) and drug sensitivities were assessed via an ATP-based cell viability assay or in colony formation assay.
For cell viability assessment, SF188 cells were seeded in 96-well culture plates at 100-500 cells in 100 μl of culture media per well. After overnight incubation, 100 μl of culture media containing compound of formula (I) was added to each well at the desired final concentration. After 72 h, cell viability was assessed by CellTiter-Glo 2.0 according to the manufacturer's instructions. Each condition was tested in triplicate or quadruplicate, and the average viability is presented as a percentage of vehicle-treated cells. For colony formation assessment (FIG. 7C), SF188 cells were seeded on a 6-well plate at 100 cells per well in 1 ml of culture media. After overnight incubation, 1 ml of culture media containing compound of formula (I) was added to each well at the desired final concentrations up to 400 nM. At 10 days post-treatment, cell colonies were fixed with 70% ethanol for 30 min, washed with distilled water, and stained with Coomassie Blue. The number of colonies in each well was counted manually. Each colony consisted of >50 cells (corresponds to six doublings from a single cell). Colony-forming efficiency was determined by normalizing the colony numbers to the vehicle-treated cells.

The nature of series [4]: Binding to plasma proteins. Conditions: human. The series is classed as in vitro ADME. The procedure:
as §1

Molecules are shown by their SMILES. Where two headings read alike, the source gives them in different places.

Take `Cc1cc(Nc2ncc3c(n2)N(C)CN(c2c(Cl)cccc2Cl)C3=O)ccc1C1CCN(C)CC1` [Compound of formula (I)]: the “Body weight loss / tolerability” value in series [1] (all dose levels (30 or 60 mg/kg QD, 28 days), s.c. and cerebral models) is recorded as “No significant body weight loss”. Moreover, the “Tumor volume vs vehicle controls at end of treatment” value in series [1] (30 mg/kg oral QD, p=0.0009 on day 28) is “significantly smaller tumors than vehicle controls”; in series [1] (60 mg/kg oral QD, p<0.0001 on day 28), “significantly smaller tumors than vehicle controls”. The “CSF to “unbound plasma” ratio” value in series [2] (Arm A, 150 mg, day 11 of cycle 1, listed as Study drug) turned out to be 0.33. Moreover, the Kp at 15 day in series [2] (human, CSF / unbound plasma, 90 mg, Arm B, 90 mg daily, Week 3 day 1 (Day 15), read-out: CSF to “unbound plasma” ratio) is 0.42. In addition, the Kp at 11 day in series [2] (human, CSF / unbound plasma, 150 mg, Arm A, 150 mg, day 11 of cycle 1, read-out: CSF to “unbound plasma” ratio) is 0.35; in series [2] (human, CSF / unbound plasma, 200 mg, Arm A, 200 mg, day 11 of cycle 1, read-out: CSF to “unbound plasma” ratio), 0.38. Moreover, the concentration at 15 day in series [2] (human, CSF, 90 mg, Arm B, 90 mg daily, Week 3 day 1 (Day 15), read-out: CSF concentration) was 21.3 nM; in series [2] (human, CSF, 90 mg, Arm B, 90 mg daily, Week 3 day 1 (Day 15), read-out: Raw data concentration in CSF), 10.9 ng/mL; in series [2] (human, plasma (unbound), 90 mg, Arm B, 90 mg daily, Week 3 day 1 (Day 15), read-out: Unbound plasma concentration), 50.3 nM; in series [2] (human, plasma, 90 mg, Arm B, 90 mg daily, Week 3 day 1 (Day 15), read-out: Raw data concentration in plasma), 309 ng/mL. Further, the concentration at 11 day in series [2] (human, CSF, 200 mg, Arm A, 200 mg, day 11 of cycle 1, read-out: CSF concentration) was 19.8 nM; in series [2] (human, CSF, 200 mg, Arm A, 200 mg, day 11 of cycle 1, read-out: Raw data concentration in CSF) it was 10.1 ng/mL; in series [2] (human, plasma (unbound), 200 mg, Arm A, 200 mg, day 11 of cycle 1, read-out: Unbound plasma concentration) it was 52.4 nM; in series [2] (human, plasma, 200 mg, Arm A, 200 mg, day 11 of cycle 1, read-out: Raw data concentration in plasma) it was 322 ng/mL. In addition, in series [2] (human, CSF/unbound plasma, 4 patients, Arms A and B, read-out: CSF/plasma ratio), the Kp was 0.33 to 0.42. Moreover, in series [3] (0 to 1.5 uM, 72 h, CellTiter-Glo 2.0), the “Viability of SF188 cells” value is “significantly reduced the viability of SF188 cells”. In addition, the “Cell viability of ATRX-deficient SF188 cells” value in series [3] (400 nM, p<0.01) is “significantly reduced”. Moreover, the “IC50 in SF188 cells with ATRX siRNA relative to control siRNA” value in series [3] (cell viability, 72 h) is “less than half of control siRNA”. Further, the fraction unbound in series [4] was 0.083.
